Measured values from patent publication US8440695B2 (St Jude Children's Research Hospital, priority 2005, dated 2013).
“Also recorded” adds a separate entry of the source.

Legend:
[1] = tested on: lipoprotein lipase (LPL); experiment: LPL enzyme activity in peritoneal macrophages from treated mice; type: in vivo, mouse; details: ATM^+/+ mice treated systemically, vs saline
Protocol: For LPL assays, cells were fed on day 6. On day 7, cells were washed and incubated in DMEM plus 0.5% BSA for 4 hr, followed by incubation with 10 U/ml heparin, collection of media, and subsequent determination of LPL activity as described (Coleman et al., 1995; J. Biol. Chem. 270:12518-12525).
Briefly, lipoprotein lipase (LPL) enzyme activity is determined by measuring the release of labeled fatty acids from a triolein emulsion in macrophages. Cells were fed on day 6. On day 7, cells were washed and incubated in DMEM plu 0.5% BSA for 4 hours, followed by incubation with 10 U/ml heparin, collection of media, and subsequent determination of LPL activity as described by Coleman et al., J. Biol. Chem., 1995, 270:12518-12525. Macrophages from the same sources were used in the assays.

[2] = tested on: ob/ob mice; experiment: Blood glucose and fasting insulin in ob/ob mice; type: in vivo, mouse
Protocol: (§1) Two month old male db/db (Lepr^db; LEPR-deficient mice having excess adiposity) mice and ob/ob (Lep^ob, genetically obese) mice were purchased from Harlan (Indianapolis, Ind.) and the Jackson Laboratory, respectively.
(§2) Blood glucose in male db/db mice were treated with either CHQ or saline. Baseline represents the average fed blood glucose levels of the 12 db/db mice.

[3] = tested on: ApoE-null model mice lacking a single allele of ATM; experiment: ApoE-null mice lacking a single allele of ATM on high fat diet, chloroquine treatment; type: in vivo, mouse; details: 7 mg/kg per week
[4] = tested on: ATM^+/+ apoE^−/− and ATM^−/− apoE^−/− mice; experiment: Tail-cuff systolic and diastolic blood pressure in Western diet-fed mice; type: in vivo, mouse; details: 7 mg/kg/week, 8 weeks Western diet, vs saline
Protocol: Systolic blood pressure (SBP) and diastolic blood pressure (DBP) were measured after 8 weeks of Western diet feeding in ATM^+/+, ATM^+/−, and ATM^−/− mice. […] A plethysmography device (such as those supplied by Kent Scientific, Litchfield, Conn.) was used for tail cuff blood pressure determinations in acclimated, warmed mice performed by a technician blinded to treatment status, according to the manufacturer's instructions. Results were reported as the mean of 5-8 measurements on each day of 3 consecutive days.
Systolic and diastolic blood pressures were measured over several days in conscious mice using a tail-cuff system (Kent Scientific, Litchfield, Conn.) as described (Bernal-Mizrachi et al., 2003; Nat. Med. 9:1069-1075). Animals were habituated to the blood pressure apparatus for several days before data were collected. Five to eight measurements were recorded for each mouse at each of three daily sessions. Results are presented as the mean of those measurements on consecutive days.

[5] = tested on: ATM^+/+ apoE^−/− mice; experiment: Atherosclerosis by the en face technique in Western diet-fed mice; type: in vivo, mouse; details: 7 mg/kg/week i.p., 8 weeks Western diet, vs saline
Protocol: Atherosclerosis was measured using the en face or aortic origin technique. For the former, pinned aortas were imaged with a digital camera and analyzed by using an image-processing program. The percentage of involvement of the intimal surface area is reported for the arch (encompassing the surface from the aortic valve to the left subclavian artery), the thoracic aorta (extending to the final intercostal artery), and the abdominal aorta (to the ileal bifurcation). For the aortic origin technique, mean lesion size for each animal was quantified by the degree of lipid staining of cross-sections of aortic tissue as described. Anesthetized mice were exsanguinated, the heart and aortic arch were perfused, then tissues were removed en bloc and frozen immediately in tissue freeze medium. For each sample, 64 sections were made on a cryostat beginning just caudal to the aortic sinus and extending into the proximal aorta at 10 μm intervals. Slides were fixed with 60% isopropanol and stained with Oil Red O. For each heart, lesions in eight sections at 80 μm intervals were quantified using image analysis software calibrated using a hemocytometer grid.
(§5) The mice were then fed the Western-type diet as described.
The quantification of aortic lesions involved cleaning the aortas and pinning them on a wax matrix with the intimal surface facing upward (en face). Images were captured with a digital camera, edited for artifacts, and data were reported as the percent involvement of the arch (encompassing the surface from the aortic valve to the left subclavian artery), thoracic aorta (extending to the last intercostal artery), and abdominal aorta (to the ileal bifurcation). At the time of isolation, hearts were embedded in optical coherence tomography (OCT) media and frozen to permit quantification of lesion formation by staining of serial cryostat-cut sections of the aortic sinus, if necessary.

[6] = tested on: retina; details: several groups; cited from earlier work
[7] = tested on: subjects with the metabolic syndrome; experiment: Ambulatory blood pressure, glucose tolerance test and body weight in subjects with the metabolic syndrome; type: in vivo, human; details: two subjects
Protocol: (§3) Glucose and insulin tolerance tests are generally performed using D-glucose (1 g/kg) and insulin (0.75 U/kg), which are administered in separate procedures followed by serial measurements of blood glucose. If necessary, an oral glucose tolerance test (OGTT) will be performed the day after completing the clamp. After an overnight fast, an intravenous catheter will be placed, baseline labs will be obtained, 75 g of glucose will be consumed, and blood glucose, insulin, C peptide, and glucagon will be determined every half hour for 2 hours.

[8] = tested on: patients with type 2 diabetes; details: cited from earlier work
[9] = target: T1, ATM (Homo sapiens, UniProt Q13315); experiment: Activated ATM (Ser1981P-ATM Western blot) in monocytes of treated subjects; type: in vivo; design: lysates were immunoprecipitated using a total ATM antibody (D1611); endogenous in cells; host or cells: adherent peripheral blood monocytes from human subjects with metabolic syndrome
Protocol: Anticoagulated blood was added to commercially available tubes containing Histopaque, and mononuclear cells were collected after centrifugation. These cells were subjected to a brief second spin using a discontinuous sucrose gradient to remove platelets (which can interfere with the adherence of monocytes to culture dishes), then the mononuclear cells were placed in tissue culture dishes. Two hours later, lymphocytes were washed away, and adherent monocytes were collected and frozen in appropriate media so that cells from different limbs of the protocol can subsequently be studied in the same assays. […] For activated ATM determinations, lysates were immunoprecipitated using a total ATM antibody (D1611). The immunoprecipitated samples were blotted for activated ATM using a monoclonal antibody recognizing Ser1981P-ATM. The gels included a positive control of 293 cells treated with camptothecin. Total lysates were used to blot activated p53 using a polyclonal antibody to Ser15P-p53 (cell signaling). To confirm the p53 data, total lysates were tested using an ELISA-based p53 DNA binding assay (TransAM p53 activity assay from Active Motif).
Target sequence in this assay (Q13315 whole entry): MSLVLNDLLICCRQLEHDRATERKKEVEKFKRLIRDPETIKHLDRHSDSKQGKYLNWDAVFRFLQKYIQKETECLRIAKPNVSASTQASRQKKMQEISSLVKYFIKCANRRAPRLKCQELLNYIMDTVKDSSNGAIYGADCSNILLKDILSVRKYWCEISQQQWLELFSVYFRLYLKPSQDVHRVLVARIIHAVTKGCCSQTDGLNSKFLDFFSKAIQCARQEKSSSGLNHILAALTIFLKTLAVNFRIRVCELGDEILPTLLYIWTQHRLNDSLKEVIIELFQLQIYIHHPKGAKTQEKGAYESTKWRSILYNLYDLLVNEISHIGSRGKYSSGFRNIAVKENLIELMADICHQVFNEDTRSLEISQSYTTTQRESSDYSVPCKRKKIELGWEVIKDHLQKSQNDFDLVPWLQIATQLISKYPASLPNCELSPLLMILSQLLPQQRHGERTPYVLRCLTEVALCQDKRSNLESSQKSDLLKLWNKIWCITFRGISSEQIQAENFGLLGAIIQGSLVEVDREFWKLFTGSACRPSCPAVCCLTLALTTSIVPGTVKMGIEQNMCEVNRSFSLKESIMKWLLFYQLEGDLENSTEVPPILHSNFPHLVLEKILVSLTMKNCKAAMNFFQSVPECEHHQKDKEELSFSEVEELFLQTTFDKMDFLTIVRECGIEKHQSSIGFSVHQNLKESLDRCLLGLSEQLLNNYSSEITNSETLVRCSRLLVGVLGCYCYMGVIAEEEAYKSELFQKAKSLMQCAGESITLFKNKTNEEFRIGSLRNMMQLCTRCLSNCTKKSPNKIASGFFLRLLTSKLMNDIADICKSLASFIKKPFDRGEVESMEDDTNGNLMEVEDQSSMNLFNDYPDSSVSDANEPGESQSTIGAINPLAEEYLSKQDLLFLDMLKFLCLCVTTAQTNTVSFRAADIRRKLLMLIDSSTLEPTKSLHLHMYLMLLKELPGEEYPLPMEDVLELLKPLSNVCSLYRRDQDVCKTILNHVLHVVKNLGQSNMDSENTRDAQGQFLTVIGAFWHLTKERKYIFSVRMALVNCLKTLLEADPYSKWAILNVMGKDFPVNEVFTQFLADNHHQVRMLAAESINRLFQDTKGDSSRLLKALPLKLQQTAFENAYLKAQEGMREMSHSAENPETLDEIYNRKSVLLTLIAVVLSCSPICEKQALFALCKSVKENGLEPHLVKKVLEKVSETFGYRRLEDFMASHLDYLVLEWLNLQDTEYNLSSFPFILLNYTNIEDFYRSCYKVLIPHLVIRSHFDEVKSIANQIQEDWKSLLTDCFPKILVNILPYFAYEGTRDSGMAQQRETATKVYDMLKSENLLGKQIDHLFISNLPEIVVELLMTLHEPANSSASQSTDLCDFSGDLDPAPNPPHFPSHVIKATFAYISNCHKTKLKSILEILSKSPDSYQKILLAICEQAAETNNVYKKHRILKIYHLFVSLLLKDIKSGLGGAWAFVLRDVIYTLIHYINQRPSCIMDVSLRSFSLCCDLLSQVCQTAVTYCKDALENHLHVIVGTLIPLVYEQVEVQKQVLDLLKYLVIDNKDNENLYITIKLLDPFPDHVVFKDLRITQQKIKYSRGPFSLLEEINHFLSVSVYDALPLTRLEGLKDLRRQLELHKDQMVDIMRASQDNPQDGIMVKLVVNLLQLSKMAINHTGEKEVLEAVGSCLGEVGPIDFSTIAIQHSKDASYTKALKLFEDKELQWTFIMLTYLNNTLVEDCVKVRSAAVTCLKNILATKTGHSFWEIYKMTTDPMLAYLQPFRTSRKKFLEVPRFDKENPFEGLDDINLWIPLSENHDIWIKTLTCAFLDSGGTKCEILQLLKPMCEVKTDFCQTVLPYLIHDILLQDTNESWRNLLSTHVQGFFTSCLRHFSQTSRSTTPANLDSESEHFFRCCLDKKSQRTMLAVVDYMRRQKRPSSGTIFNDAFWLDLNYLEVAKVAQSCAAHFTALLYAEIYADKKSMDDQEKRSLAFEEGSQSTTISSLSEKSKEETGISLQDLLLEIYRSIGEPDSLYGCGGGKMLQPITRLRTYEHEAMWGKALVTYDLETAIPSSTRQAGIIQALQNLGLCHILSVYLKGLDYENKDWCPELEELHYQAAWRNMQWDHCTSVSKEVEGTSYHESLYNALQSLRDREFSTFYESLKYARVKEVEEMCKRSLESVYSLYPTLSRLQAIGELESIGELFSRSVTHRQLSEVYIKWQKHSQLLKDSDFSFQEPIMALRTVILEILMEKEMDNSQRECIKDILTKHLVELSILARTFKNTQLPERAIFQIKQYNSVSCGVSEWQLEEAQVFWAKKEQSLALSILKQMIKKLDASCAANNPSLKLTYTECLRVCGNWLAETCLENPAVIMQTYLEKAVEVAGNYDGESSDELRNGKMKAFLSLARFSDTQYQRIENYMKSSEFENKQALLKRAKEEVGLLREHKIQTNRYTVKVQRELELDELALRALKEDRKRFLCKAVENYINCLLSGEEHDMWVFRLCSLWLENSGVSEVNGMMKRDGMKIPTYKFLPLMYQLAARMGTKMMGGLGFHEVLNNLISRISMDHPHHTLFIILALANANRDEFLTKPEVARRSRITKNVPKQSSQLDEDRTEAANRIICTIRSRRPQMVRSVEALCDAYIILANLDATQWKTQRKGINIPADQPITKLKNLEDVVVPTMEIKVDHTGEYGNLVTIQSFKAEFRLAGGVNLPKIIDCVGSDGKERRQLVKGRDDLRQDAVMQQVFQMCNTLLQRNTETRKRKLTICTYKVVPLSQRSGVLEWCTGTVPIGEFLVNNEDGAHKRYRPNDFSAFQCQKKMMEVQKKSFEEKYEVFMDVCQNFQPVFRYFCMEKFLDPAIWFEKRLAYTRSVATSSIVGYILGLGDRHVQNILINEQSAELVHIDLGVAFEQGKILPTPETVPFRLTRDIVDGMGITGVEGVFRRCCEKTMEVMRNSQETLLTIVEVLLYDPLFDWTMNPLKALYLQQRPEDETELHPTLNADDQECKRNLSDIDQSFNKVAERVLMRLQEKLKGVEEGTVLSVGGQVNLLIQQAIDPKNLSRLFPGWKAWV

[10] = tested on: subjects with the metabolic syndrome; experiment: Fasting lipids and lipoproteins in subjects with the metabolic syndrome; type: in vivo, human; details: for Total Cholesterol / HDL cholesterol / LDL cholesterol / Triglycerides: 3 weeks; for Total Cholesterol: average of two subjects, placebo 206; for HDL cholesterol: placebo 47; for LDL cholesterol: placebo 132; for Triglycerides: placebo 139
[11] = tested on: ATM^+/+apoE^−/− and ATM^−/−apoE^−/− mice; experiment: Intraperitoneal glucose tolerance test in Western diet-fed mice; type: in vivo, mouse
Protocol: For glucose tolerance and insulin tolerance tests, mice were fasted and injected with 10% D-glucose (1 g/kg) or human regular insulin (0.75 units/kg body weight, Eli Lilly and Co., Indianapolis, Ind.) in procedures separated by at least one week. Tail vein blood (5-10 µl) was assayed for glucose at 0, 30, 60, and 120 minutes. Blood glucose was assayed using a glucose meter (Hemocue, Mission Viejo, Calif. or Becton Dickinson, San Jose, Calif.). The area under the glucose and insulin curves (AUC) during the OGTT and ITT were calculated using the formula: 0.25 (fasting value)+0.5 (½ h value)+0.75 (1 h value)+0.5 (2 h value).
The glucose tolerance and insulin tolerance tests were performed on mice that were fasted for 12 hours and then injected with 10% D-glucose (1 g/kg) or human regular insulin (0.75 units/kg body weight, Eli Lilly and Co., Indianapolis, Ind.) in procedures separated by at least one week. Tail vein blood (5-10 μl) was assayed for glucose at 0, 30, 60, and 120 minutes. Blood glucose was assayed using a glucose meter (Hemocue, Mission Viejo, Calif.). The area under the glucose and insulin curves (AUC) during the OGTT and ITT were calculated using the formula: 0.25 (fasting value)+0.5 (½ h value)+0.75 (1 h value)+0.5 (2 h value), as described by Haffner et al., N. Engl.
as §5

[12] = tested on: p53; details: low dose chloroquine, 3.5 mg/kg per injection i.p.
From the text: (§4) However, low level activation of ATM as detected with an antibody that recognizes serine phosphorylation at residue 1981, may also be used in the assay.

[13] = tested on: subjects with the metabolic syndrome; experiment: Hyperinsulinemic-euglycemic clamp in subjects with the metabolic syndrome; type: in vivo, human
Protocol: as §3
Two subjects with the metabolic syndrome have completed the protocol. The mean glucose infusion rate to maintain euglycemia (90 mg/dl) at steady state during the first stage of the clamp (using an insulin infusion rate of 15 mU/m^2/min) for these two subjects was determined.
Clamps are performed with infusion of stable isotope-labeled glucose to allow the determination of both glucose disposal rates and hepatic glucose output during hyperinsulinemic-euglycemic clamps in subjects with the metabolic syndrome. The results are presented as the mean for two subjects.

[14] = target: T1, ATM; experiment: ATM activation in cultured cells; type: cell-based; design: endogenous in cells; details: low concentrations
From the text: as §4
Target sequence in this assay (Q13315 whole entry, species assumed): as the sequence (Q13315 whole entry) above

[15] = tested on: db/db mice; experiment: Fed blood glucose in db/db mice; type: in vivo, mouse; details: male db/db mice, vs baseline and saline
Protocol: as §1, §2

[16] = Body weight, metabolic rate (indirect calorimetry) and fasting serum lipids in mice; type: in vivo, mouse; details: ATM^+/+ apoE^−/− mice, 7 mg/kg/week, 4 and 8 weeks Western diet
Protocol: as §5
All of these experiments were performed using ATM^+/+ apoE^−/− littermate mice beginning at the age of 8 weeks.
Serum is generally obtained after a four hour fast and assayed for routine chemistries (glucose, triglycerides, cholesterol, and non-esterified fatty acids) using an automated plate reader connected to a computer, as described by Li et al., Nat.

[17] = tested on: JNK; experiment: Phospho-JNK ELISA in cultured aortic smooth muscle cells after antisense transfection; type: cell-based, mouse; details: aortic smooth muscle cells from ATM^+/+apoE^−/− mice, 1.4 μmol/L, 72 hours
Protocol: When cultured aortic smooth muscle cells were treated with a morpholino antisense oligonucleotide to ATM, JNK activity was increased, providing direct evidence that interfering with ATM expression induces JNK activity, a mediator of insulin resistance. Analysis of phospho-JNK in vascular smooth muscle cells cultured from ATM^+/+apoE^−/− mice. Primary aortic smooth muscle cells were transfected with an anti-ATM oligonucleotide, or a control oligonucleotide or the vehicle ethoxylated polyethylenimine solution only. Cells were assayed by ELISA for phospho-JNK and total JNK as measured in U/ml/well of a 96-well plate. […] Increased expression of phospho-JNK was detected in tissues involved in systemic insulin action in all three ATM genotypes in apoE^−/− mice, as determined by analysis of Western blots for fat, skeletal muscle and liver. Comparisons were made between ATM-deficient and ATM wild-type animals.
Most of the mass of the aorta is composed of smooth muscle cells. Smooth muscle cells were cultured from the aortas of apoE^−/− mice by the explant technique as described by Weng et al., Proc. Natl. Acad. Sci. USA, 2003, 100:6730-6735. […] Successful transfection was confirmed by fluorescence microscopy and phospho-JNK and total JNK were assayed 72 hours later using a cell-based ELISA kit. […]

[18] = 1000 mg/day for three days (Powrie et al.)
[19] = 80 mg/day for three weeks, two subjects
[20] = 80 mg/day, first stage of clamp, mean of two subjects

Question: For `CCN(CC)CCCC(C)Nc1ccnc2cc(Cl)ccc12` (stereo not shown) [chloroquine, N4-(7-Chloro-4-quinolinyl)-N1,N1-diethyl-1,4-pentanediamine], which “LPL enzyme activity in peritoneal macrophages” value [1] is on record?
Answer: decreased

Question: What about the fasting insulin levels ([2]; 7 mg/kg/week, saline 16,810±1,120, P<0.05) of the same compound?
Answer: 13,360±1996 pg/ml

Question: And the fasting glucose levels ([2]; 3 weeks after initiation, vs baseline and saline)?
Answer: lowered

Question: What about the fed glucose levels ([2]; vs baseline and saline) of the same compound?
Answer: lowered

Question: What about the atherosclerosis [3] of the same compound?
Answer: significantly reduced

Question: What about the central adiposity [3] of the same compound?
Answer: significantly reduced

Question: And the glucose intolerance [3]?
Answer: significantly reduced

Question: What about the hypertension [3] of the same compound?
Answer: significantly reduced

Question: What about the “lowering of systolic pressure” value [4] of the same compound?
Answer: 9 mm Hg

Question: What about the “decrease of atherosclerosis (lesion area) at the abdominal aorta” value [5] of the same compound?
Answer: 25%

Question: What about the “decrease of atherosclerosis (lesion area) at the arch” value [5] of the same compound?
Answer: 37%

Question: And the “decrease of atherosclerosis (lesion area) at the thoracic aorta” value [5]?
Answer: 25%

Question: And the “cumulative doses with no effects (retinopathy)” value [6]?
Answer: 300 grams

Question: What about the “ambulatory blood pressures (systolic, diastolic, mean arterial)” value [7] of the same compound?
Answer: did not appear to be affected

Question: What about the endogenous glucose production [8, 18] of the same compound?
Answer: without affecting

Question: And the “insulin resistance in peripheral tissues” value [8, 18]?
Answer: modestly decreased

Question: What about the “increase in the glucose infusion rate required to maintain euglycemia” value ([8]; 1000 mg/day for three days, patients with type 2 diabetes) of the same compound?
Answer: 13%

Question: And the ATM activation ([9]; 80 mg/day dose)?
Answer: greater activation

Question: What about the ATM activation ([9]; 250 mg/day dose) of the same compound?
Answer: blunted effect

Question: And the “activation of ATM in monocytes” value ([9]; three weeks of 80 mg/day or 250 mg/day, none with placebo)?
Answer: activation; also recorded: activated

Question: And the “decrease in LDL cholesterol” value [10, 19]?
Answer: 25%

Question: And the “decrease in total cholesterol” value [10, 19]?
Answer: 17%

Question: What about the decrease in triglycerides [10, 19] of the same compound?
Answer: 10%

Question: And the “Total Cholesterol” value ([10]; chloroquine 80 mg/day)?
Answer: 172 mg/dL

Question: What about the HDL cholesterol ([10]; chloroquine 80 mg/day) of the same compound?
Answer: 47 mg/dL

Question: What about the LDL cholesterol ([10]; chloroquine 80 mg/day) of the same compound?
Answer: 100 mg/dL

Question: What about the Triglycerides ([10]; chloroquine 80 mg/day) of the same compound?
Answer: 125 mg/dL

Question: What about the “Total Cholesterol” value ([10]; chloroquine 250 mg/day) of the same compound?
Answer: 169 mg/dL

Question: What about the HDL cholesterol ([10]; chloroquine 250 mg/day) of the same compound?
Answer: 51 mg/dL

Question: What about the LDL cholesterol ([10]; chloroquine 250 mg/day) of the same compound?
Answer: 99 mg/dL

Question: What about the Triglycerides ([10]; chloroquine 250 mg/day) of the same compound?
Answer: 129 mg/dL

Question: What about the glucose tolerance ([11]; ATM^+/+ apoE^−/− mice, 7 mg/kg/week, 8 weeks Western diet, vs saline) of the same compound?
Answer: improved

Question: And the glucose tolerance ([11]; ATM^−/−apoE^−/− mice, Western diet)?
Answer: not

Question: What about the “p53 activation in fat and muscle as well as liver, aorta and cultured macrophages” value [12] of the same compound?
Answer: p53 activation

Question: What about the “increase in glucose infusion rate compared to placebo” value ([13]; 80 mg dose, second stage of clamp (insulin 40 mU/m^2/min)) of the same compound?
Answer: 23%

Question: What about the “increase in glucose infusion rate to maintain the blood glucose” value ([13]; 80 mg per day oral, 3 weeks, first stage of clamp (insulin 15 mU/m^2/min), mean of two subjects) of the same compound?
Answer: 63%

Question: And the “decrease of hepatic glucose production” value [13, 20]?
Answer: 58%

Question: What about the “increase of glucose disposal in peripheral tissues” value [13, 20] of the same compound?
Answer: 62%

Question: What about the “glucose infusion rate effect” value ([13]; 250 mg dose, clamp first and second stage) of the same compound?
Answer: blunted effect

Question: What about the “ATM activation in cultured cells” value [14] of the same compound?
Answer: activates

Question: What about the fed glucose levels [15] of the same compound?
Answer: lowered

Question: And the “serum lipids (fasting cholesterol, triglycerides, NEFA)” value [16]?
Answer: no effect

Question: Which “JNK activity (phospho-JNK normalized to total JNK)” value [17] does the source give for “anti-ATM: lissamine-tagged Morpholino antisense oligonucleotide against mouse ATM, 5′-GTGCTAGACTCATGGTTTAAGATTT-3′ (SEQ ID NO:6) (all phosphorodiamidate morpholino (PMO); lissamine tag, position not given here)” here?
Answer: increased
